Data taken from US20240327364A1, “THERAPEUTIC TARGETING OF GPR68 TO INDUCE FERROPTOSIS” (University Of Maryland, Baltimore, priority 2023, published 2024).

How the values were obtained:
[1] = system: U87; test: Immunogenic cell death markers (CRT externalization, ATP secretion); assay type: cell-based, human
Protocol: OGM2 treatment of […] increases makers of immunogenic cell death (ICD, such as release of ATP into the extracellular environment ([…]) and calreticulin (CRT) externalization (FIG. 94B and FIG. 94C). Extracellular ATP content was assessed using the Enliten Atp Assay System (PROMEGA) (FIG. 94A). Calreticulin (CRT) externalization 3- and 6-hours post-treatment (see FIG. 94B and FIG. 94C) in U87 cells was assessed using immunofluorescence analysis using polyclonal antibody against calreticulin (Invitrogen™). Immunogenic cell death (ICD) is defined by expression or release of damage-associated molecular patterns (DAMPs), including extracellular ATP release and calreticulin externalization, which stimulate antitumor immune response, which in turn contributes to long-lasting protective antitumor immunity. […]
For the CRT externalization assay, U87 cells were seeded on 96-well plate, then treated with DMSO, […] (DOX), […] and […] (shown as OGM in the figures). […] Cells labelled with CRT were counted automatically with Lionheart™ automated microscope and % of CRT+ cells calculated. […]
For the ATP secretion assay, U87 cells were seeded on 96-well plate, then treated with DMSO, […] (DOX), […] and […] (OGM). At 6 hours, extracellular ATP levels were measured using the ENLITEN ATP Assay (Promega™). […]

[2] = system: zebrafish embryos; test: Acridine orange stain of zebrafish embryos (cell death); details: in vivo
[3] = system: HEK293; assay type: cell-based
Excerpt: FIG. 59A through FIG. 59D: OGM2 causes specific cell death in glioblastoma cells.
Thus, in contrast to erastin, OGM2 induces ferroptosis selectively in cancer cells.

[4] = molecular target: T1, EPHA5 (Homo sapiens, UniProt P54756); test: KinomeScan; assay type: binding; details: read-out: % Control
T1 construct: purchased DiscoveRx (Fremont, CA)

[5] = molecular target: T2, RSK4(Kin.Dom.2-C-terminal) (Homo sapiens, UniProt Q9UK32); test: KinomeScan; assay type: binding; details: read-out: % Control
T2 construct: RSK4(Kin.Dom.2-C-terminal); purchased DiscoveRx (Fremont, CA)
T2 sequence (Q9UK32 426-683 limits assumed): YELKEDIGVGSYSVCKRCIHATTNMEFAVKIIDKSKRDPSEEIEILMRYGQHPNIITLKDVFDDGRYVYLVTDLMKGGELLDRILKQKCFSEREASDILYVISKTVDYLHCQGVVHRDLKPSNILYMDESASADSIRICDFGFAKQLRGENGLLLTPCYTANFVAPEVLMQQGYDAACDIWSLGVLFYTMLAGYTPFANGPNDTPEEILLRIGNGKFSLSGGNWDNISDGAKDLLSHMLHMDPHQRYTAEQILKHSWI

[6] = molecular target: T3, HIPK4 (Homo sapiens, UniProt Q8NE63); test: KinomeScan; assay type: binding; details: read-out: % Control
T3 construct: purchased DiscoveRx (Fremont, CA)

[7] = molecular target: T4, ABL1(T315I)-nonphosphorylated (Homo sapiens, UniProt P00519, T315I); test: KinomeScan; assay type: binding; details: read-out: % Control
T4 construct: purchased DiscoveRx

[8] = molecular target: T5, STK33 (Homo sapiens, UniProt Q9BYT3); test: KinomeScan; assay type: binding; details: read-out: % Control
T5 construct: purchased DiscoveRx (Fremont, CA)

[9] = molecular target: T6, ROCK2 (Homo sapiens, UniProt O75116); test: KinomeScan; assay type: binding; details: read-out: % Control
T6 construct: purchased DiscoveRx (Fremont, CA)

[10] = molecular target: T7, TLK2 (Homo sapiens, UniProt Q86UE8); test: KinomeScan; assay type: binding; details: read-out: % Control
T7 construct: purchased DiscoveRx (Fremont, CA)
T7 sequence (Q86UE8 whole entry): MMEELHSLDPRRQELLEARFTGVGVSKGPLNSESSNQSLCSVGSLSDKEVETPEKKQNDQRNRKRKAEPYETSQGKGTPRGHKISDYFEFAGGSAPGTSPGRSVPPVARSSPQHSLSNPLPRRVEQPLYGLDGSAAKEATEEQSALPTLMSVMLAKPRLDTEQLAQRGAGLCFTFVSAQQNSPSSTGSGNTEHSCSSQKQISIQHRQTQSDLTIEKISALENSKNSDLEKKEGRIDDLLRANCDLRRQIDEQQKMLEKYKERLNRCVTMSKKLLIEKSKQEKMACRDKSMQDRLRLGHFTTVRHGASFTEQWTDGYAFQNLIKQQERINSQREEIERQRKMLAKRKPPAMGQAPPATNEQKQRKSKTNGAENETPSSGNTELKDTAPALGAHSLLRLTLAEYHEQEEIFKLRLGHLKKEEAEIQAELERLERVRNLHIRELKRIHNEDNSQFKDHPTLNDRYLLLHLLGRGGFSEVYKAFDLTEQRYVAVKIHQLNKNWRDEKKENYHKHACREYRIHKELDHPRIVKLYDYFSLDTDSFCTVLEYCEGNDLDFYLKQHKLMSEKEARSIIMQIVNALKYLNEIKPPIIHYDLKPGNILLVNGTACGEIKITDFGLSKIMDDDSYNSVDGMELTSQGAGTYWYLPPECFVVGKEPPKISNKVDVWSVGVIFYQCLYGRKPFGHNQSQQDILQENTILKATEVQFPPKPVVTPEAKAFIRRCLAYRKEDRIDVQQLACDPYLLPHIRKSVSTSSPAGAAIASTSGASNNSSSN

[11] = molecular target: T8, ABL1-phosphorylated (Homo sapiens, UniProt P00519); test: KinomeScan; assay type: binding; details: read-out: % Control
T8 construct: purchased DiscoveRx

[12] = molecular target: T9, MET(M1250T) (Homo sapiens, UniProt P08581, M1250T); test: KinomeScan; assay type: binding; details: read-out: % Control
T9 construct: purchased DiscoveRx (Fremont, CA)

[13] = molecular target: T10, GPR91 (Homo sapiens, UniProt Q9BXA5); test: GPCR Profiler; assay type: cell-based
T10 construct: host or cells: Chem-1 cells with promiscuous Gα15
T10 sequence (Q9BXA5 whole entry, species assumed): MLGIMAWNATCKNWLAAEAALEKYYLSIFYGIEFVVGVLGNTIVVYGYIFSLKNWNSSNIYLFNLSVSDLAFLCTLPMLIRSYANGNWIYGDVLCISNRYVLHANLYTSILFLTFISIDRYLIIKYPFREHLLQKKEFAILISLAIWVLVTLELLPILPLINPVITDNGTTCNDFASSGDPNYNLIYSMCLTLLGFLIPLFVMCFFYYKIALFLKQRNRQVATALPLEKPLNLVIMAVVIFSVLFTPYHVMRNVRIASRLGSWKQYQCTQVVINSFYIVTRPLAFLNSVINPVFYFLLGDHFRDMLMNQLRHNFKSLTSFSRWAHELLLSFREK

[14] = molecular target: T11, ROS1 (Homo sapiens, UniProt P08922); test: KinomeScan; assay type: binding; details: read-out: % Control
T11 construct: purchased DiscoveRx (Fremont, CA)

[15] = molecular target: T12, AKT3 (Homo sapiens, UniProt Q9Y243); test: KinomeScan; assay type: binding; details: read-out: % Control
T12 construct: purchased DiscoveRx (Fremont, CA)
T12 sequence (Q9Y243 whole entry): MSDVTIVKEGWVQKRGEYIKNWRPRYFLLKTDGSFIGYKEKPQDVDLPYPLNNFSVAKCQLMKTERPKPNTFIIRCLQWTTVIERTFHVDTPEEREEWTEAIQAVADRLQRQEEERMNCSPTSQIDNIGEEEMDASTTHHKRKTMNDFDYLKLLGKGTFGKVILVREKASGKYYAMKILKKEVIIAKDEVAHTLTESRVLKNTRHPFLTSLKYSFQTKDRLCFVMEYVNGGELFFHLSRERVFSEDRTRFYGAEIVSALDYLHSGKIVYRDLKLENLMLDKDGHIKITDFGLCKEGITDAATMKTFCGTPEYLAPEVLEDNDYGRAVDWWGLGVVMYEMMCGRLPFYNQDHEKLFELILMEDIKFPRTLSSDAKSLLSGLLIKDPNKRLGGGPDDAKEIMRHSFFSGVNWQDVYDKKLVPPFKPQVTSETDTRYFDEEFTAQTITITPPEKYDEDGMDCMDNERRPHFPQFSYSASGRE

[16] = molecular target: CDKL5 (Homo sapiens, UniProt O76039); test: KinomeScan; assay type: binding; details: read-out: % Control
[17] = molecular target: T13, FRK (Homo sapiens, UniProt P42685); test: KinomeScan; assay type: binding; details: read-out: % Control
T13 construct: purchased DiscoveRx (Fremont, CA)

[18] = molecular target: GPR68 (Homo sapiens, UniProt Q15743); test: GPCR Profiler; assay type: cell-based; set-up: host or cells: Chem-1 cells (Chem1-OGR1)
GPR68, sequence (Q15743 whole entry): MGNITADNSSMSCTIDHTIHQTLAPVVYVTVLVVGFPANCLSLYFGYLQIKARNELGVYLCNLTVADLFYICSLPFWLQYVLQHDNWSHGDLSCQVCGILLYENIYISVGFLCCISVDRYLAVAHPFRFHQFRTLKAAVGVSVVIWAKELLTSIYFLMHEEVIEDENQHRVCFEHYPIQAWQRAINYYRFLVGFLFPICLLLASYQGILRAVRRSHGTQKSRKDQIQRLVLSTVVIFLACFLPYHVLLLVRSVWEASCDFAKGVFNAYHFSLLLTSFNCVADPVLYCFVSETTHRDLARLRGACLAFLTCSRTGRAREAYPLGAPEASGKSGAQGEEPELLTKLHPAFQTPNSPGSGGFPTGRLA

[19] = molecular target: T14, CaS (Homo sapiens, UniProt P41180); test: GPCR Profiler; assay type: cell-based
T14 construct: host or cells: Chem-1 cells with promiscuous Gα15
T14 sequence (P41180 20-1078): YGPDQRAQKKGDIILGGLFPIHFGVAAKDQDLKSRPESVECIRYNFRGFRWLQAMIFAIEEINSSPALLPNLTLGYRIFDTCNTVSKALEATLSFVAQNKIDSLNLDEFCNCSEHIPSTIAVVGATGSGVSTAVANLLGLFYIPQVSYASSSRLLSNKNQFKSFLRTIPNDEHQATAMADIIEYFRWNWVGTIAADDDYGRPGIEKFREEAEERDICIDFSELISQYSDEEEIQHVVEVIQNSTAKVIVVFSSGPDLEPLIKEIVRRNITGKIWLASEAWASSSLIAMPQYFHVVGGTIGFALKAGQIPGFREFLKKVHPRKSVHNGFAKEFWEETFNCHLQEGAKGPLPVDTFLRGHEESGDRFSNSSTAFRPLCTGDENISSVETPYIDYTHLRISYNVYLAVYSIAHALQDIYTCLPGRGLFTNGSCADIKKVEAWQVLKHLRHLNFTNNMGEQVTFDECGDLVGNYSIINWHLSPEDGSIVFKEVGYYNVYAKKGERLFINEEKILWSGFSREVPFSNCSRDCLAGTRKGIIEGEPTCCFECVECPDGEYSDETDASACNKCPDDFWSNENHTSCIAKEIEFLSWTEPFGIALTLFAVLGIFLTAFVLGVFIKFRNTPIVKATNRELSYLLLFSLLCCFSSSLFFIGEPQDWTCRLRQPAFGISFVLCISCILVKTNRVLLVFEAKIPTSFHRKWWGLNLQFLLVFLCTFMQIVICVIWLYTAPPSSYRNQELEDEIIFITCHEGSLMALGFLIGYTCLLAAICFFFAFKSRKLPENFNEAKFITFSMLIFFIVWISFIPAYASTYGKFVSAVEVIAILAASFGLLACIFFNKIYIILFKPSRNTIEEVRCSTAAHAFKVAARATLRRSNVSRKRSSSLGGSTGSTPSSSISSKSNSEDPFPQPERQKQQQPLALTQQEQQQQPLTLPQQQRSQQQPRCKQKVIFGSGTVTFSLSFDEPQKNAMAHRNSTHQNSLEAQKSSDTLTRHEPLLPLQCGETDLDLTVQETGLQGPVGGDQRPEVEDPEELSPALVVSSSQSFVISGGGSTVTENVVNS

[20] = molecular target: T15, PYK2 (Homo sapiens, UniProt Q14289); test: KinomeScan; assay type: binding; details: read-out: % Control
T15 construct: purchased DiscoveRx (Fremont, CA)

[21] = molecular target: T16, JAK2(JH1domain-catalytic) (Homo sapiens, UniProt O60674); test: KinomeScan; assay type: binding; details: read-out: % Control
T16 construct: JAK2(JH1domain-catalytic); purchased DiscoveRx (Fremont, CA)

[22] = molecular target: T17, 5-HT2B (Homo sapiens, UniProt P41595); test: GPCR Profiler; assay type: cell-based
T17 construct: host or cells: Chem-1 cells with promiscuous Gα15
T17 sequence (P41595 whole entry): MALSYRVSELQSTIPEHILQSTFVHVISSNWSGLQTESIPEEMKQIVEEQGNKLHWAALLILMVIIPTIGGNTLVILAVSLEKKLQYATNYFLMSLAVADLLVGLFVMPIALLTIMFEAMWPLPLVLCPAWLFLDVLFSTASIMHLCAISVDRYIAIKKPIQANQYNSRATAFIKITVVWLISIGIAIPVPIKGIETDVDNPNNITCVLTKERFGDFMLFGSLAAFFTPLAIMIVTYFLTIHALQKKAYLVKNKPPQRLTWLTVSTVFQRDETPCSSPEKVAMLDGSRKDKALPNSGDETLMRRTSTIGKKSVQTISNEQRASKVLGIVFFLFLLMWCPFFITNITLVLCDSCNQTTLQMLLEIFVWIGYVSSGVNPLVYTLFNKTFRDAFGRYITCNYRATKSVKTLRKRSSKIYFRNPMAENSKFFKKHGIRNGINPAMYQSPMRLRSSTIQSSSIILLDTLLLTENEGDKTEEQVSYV

[23] = molecular target: T18, EIF2AK1 (Homo sapiens, UniProt Q9BQI3); test: KinomeScan; assay type: binding; details: read-out: % Control
T18 construct: purchased DiscoveRx (Fremont, CA)

[24] = molecular target: T19, D4 (Homo sapiens, UniProt P21917); test: GPCR Profiler; assay type: cell-based
T19 construct: host or cells: Chem-1 cells expressing Gα15
T19 sequence (P21917 whole entry): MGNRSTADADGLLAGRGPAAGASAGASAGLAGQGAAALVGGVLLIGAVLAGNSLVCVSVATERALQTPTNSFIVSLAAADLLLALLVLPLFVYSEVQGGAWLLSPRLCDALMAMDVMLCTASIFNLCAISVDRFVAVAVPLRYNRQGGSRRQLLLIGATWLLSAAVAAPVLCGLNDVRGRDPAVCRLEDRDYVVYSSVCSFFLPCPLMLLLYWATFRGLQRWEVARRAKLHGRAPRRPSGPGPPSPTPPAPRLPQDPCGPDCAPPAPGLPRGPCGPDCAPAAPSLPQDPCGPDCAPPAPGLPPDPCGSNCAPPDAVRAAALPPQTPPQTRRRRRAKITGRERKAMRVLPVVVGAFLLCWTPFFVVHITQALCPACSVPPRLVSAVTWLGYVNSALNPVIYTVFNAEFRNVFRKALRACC

[25] = molecular target: T20, SNARK (Homo sapiens, UniProt Q9H093); test: KinomeScan; assay type: binding; details: read-out: % Control
T20 construct: purchased DiscoveRx (Fremont, CA)
T20 sequence (Q9H093 whole entry): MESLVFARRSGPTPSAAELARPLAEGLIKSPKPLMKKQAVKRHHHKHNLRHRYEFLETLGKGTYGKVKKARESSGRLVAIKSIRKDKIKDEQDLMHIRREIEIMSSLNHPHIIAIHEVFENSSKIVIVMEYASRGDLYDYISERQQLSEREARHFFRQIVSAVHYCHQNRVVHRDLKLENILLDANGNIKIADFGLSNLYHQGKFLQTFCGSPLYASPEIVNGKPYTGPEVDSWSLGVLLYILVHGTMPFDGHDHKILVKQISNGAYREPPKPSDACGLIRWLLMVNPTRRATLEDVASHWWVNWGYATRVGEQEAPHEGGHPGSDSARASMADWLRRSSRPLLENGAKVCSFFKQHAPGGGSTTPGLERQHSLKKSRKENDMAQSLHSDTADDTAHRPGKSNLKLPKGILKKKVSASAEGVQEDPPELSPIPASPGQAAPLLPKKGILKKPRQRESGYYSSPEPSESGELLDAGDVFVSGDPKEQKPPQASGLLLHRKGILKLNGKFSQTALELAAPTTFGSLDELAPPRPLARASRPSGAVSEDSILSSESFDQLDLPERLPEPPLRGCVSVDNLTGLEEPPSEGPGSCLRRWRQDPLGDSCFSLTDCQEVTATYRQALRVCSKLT

## CCc1ccc2c(c1)C1(NN=C(c3ccccc3)S1)C(=O)N2 (stereo not shown) [OGM2]
[1]; 3 hours of treatment
  externalization of CRT: significant externalization of CRT
[1]; 6 hours
  secretion of ATP: secretion of ATP
[2]
  excess cell death: did not induce excess cell death in zebrafish larvae
[3]
  HEK293 cell viability / survival: no effect

## CCc1ccc2c(c1)C1(NN=C(c3cccc4ccccc34)S1)C(=O)N2 (stereo not shown) [OGM1, 5-ethyl-5′-naphthalen-1-ylspiro[1H-indole-3,2′-3H-1,3,4-thiadiazole]-2-one]
[4]
  remaining binding at 10 µM: 97%
[5]
  remaining binding at 10 µM: 41%
[6]
  remaining binding at 10 µM: 100%
[7]
  remaining binding at 10 µM: 73%
[8]
  remaining binding at 10 µM: 91%
[9]
  remaining binding at 10 µM: 73%
[10]
  remaining binding at 10 µM: 71%
[11]
  remaining binding at 10 µM: 93%
[12]
  remaining binding at 10 µM: 68%
[13]; 10 uM
  Antagonism: −5.4
[13]; 12.5 uM
  Agonism: 1.2
[14]
  remaining binding at 10 µM: 100%
[15]
  remaining binding at 10 µM: 100%
[16]
  remaining binding at 10 µM: 85%
[17]
  remaining binding at 10 µM: 100%
[18]; 10 uM
  Antagonism: 70.8
[18]; 12.5 uM
  Agonism: −7.6
[19]; 10 uM
  Antagonism: −3.6
[19]; 12.5 uM
  Agonism: −1.2
[20]
  remaining binding at 10 µM: 100%
[21]
  remaining binding at 10 µM: 100%
[22]; 10 uM
  Antagonism: 0.3
[22]; 12.5 uM
  Agonism: −0.1
[23]
  remaining binding at 10 µM: 100%
[24]; 10 uM
  Antagonism: −16.3
[24]; 12.5 uM
  Agonism: 0.6
[25]
  remaining binding at 10 µM: 100%
